Assays:
[1] = Oral bioavailability in Sprague-Dawley rat at 5 mg/kg measured after 24 hrs by LCMS analysis; assay type: ADME, organism-based; details: in vivo
[2] = MRTinfinity in Sprague-Dawley rat at 1 mg/kg, iv measured after 24 hrs by LCMS analysis; assay type: ADME, organism-based; details: in vivo
[3] = Cmax in Sprague-Dawley rat at 5 mg/kg, po via gavage administration measured after 24 hrs by LCMS analysis; assay type: ADME, organism-based; design: dose 5 mg/kg, route oral; details: in vivo
[4] = Tmax in Sprague-Dawley rat at 10 mg/kg, po via gavage administration measured after 24 hrs by LCMS analysis; assay type: ADME, organism-based; details: in vivo
[5] = Oral bioavailability in Sprague-Dawley rat at 10 mg/kg measured after 24 hrs by LCMS analysis; assay type: ADME, organism-based; details: in vivo
[6] = Acute toxicity in mouse assessed as change in liver at 2 mg/kg, ig measured up to 14 days by H and E staining based assay; assay type: organism-based; details: in vivo, po, 336 h
[7] = Acute toxicity in mouse assessed as change in body weight at 2 mg/kg, ig measured up to 14 days; assay type: organism-based; details: in vivo, po, 336 h
[8] = Acute toxicity in mouse assessed as change in lung at 2 mg/kg, ig measured up to 14 days by H and E staining based assay; assay type: organism-based; details: in vivo, po, 336 h
[9] = MRTinfinity in Sprague-Dawley rat at 10 mg/kg, po via gavage administration measured after 24 hrs by LCMS analysis; assay type: ADME, organism-based; details: in vivo
[10] = Acute toxicity in mouse assessed as change in brain at 2 mg/kg, ig measured up to 14 days by H and E staining based assay; assay type: organism-based; details: in vivo, po, 336 h
[11] = Acute toxicity in mouse assessed as change in behavior at 2 mg/kg, ig measured up to 14 days; assay type: organism-based; details: in vivo, po, 336 h
[12] = Metabolic stability in human liver microsomes at 1 uM measured up to 45 mins in presence of NADPH by LC/MS/MS analysis; assay type: ADME, Microsome
[13] = Intrinsic clearance in rat liver microsomes assessed per mg protein at 1 uM measured up to 45 mins in presence of NADPH by LC/MS/MS analysis; assay type: ADME, Microsome; details: microsomes, 0.75 h, 1 µM
[14] = Tmax in Sprague-Dawley rat at 5 mg/kg, po via gavage administration measured after 24 hrs by LCMS analysis; assay type: ADME, organism-based; details: in vivo
[15] = Aqueous solubility of compound at 2 mg measured for 24 hrs by HPLC analysis; assay type: physicochemical; details: aqueous medium
[16] = AUC in Sprague-Dawley rat at 1 mg/kg, iv measured after 24 hrs by LCMS analysis; assay type: ADME, organism-based; design: time < 24 hr, dose 1 mg/kg, route intravenous; details: in vivo
[17] = AUC in Sprague-Dawley rat at 10 mg/kg, po via gavage administration measured after 24 hrs by LCMS analysis; assay type: ADME, organism-based; design: dose 10 mg/kg, time < 24 hr, route oral; details: in vivo
[18] = AUCinfinity in Sprague-Dawley rat at 10 mg/kg, po via gavage administration measured after 24 hrs by LCMS analysis; assay type: ADME, organism-based; design: dose 10 mg/kg, time infinity, route oral; details: in vivo
[19] = Metabolic stability in rat liver microsomes at 1 uM measured up to 45 mins in presence of NADPH by LC/MS/MS analysis; assay type: ADME, Microsome
[20] = AUCinfinity in Sprague-Dawley rat at 5 mg/kg, po via gavage administration measured after 24 hrs by LCMS analysis; assay type: ADME, organism-based; design: dose 5 mg/kg, route oral, time infinity; details: in vivo
[21] = Half life in Sprague-Dawley rat at 1 mg/kg, iv measured after 24 hrs by LCMS analysis; assay type: ADME, organism-based; details: in vivo
[22] = Half life in Sprague-Dawley rat at 10 mg/kg, po via gavage administration measured after 24 hrs by LCMS analysis; assay type: ADME, organism-based; details: in vivo
[23] = Cmax in Sprague-Dawley rat at 10 mg/kg, po via gavage administration measured after 24 hrs by LCMS analysis; assay type: ADME, organism-based; design: dose 10 mg/kg, route oral; details: in vivo
[24] = AUCinfinity in Sprague-Dawley rat at 1 mg/kg, iv measured after 24 hrs by LCMS analysis; assay type: ADME, organism-based; design: dose 1 mg/kg, route intravenous, time infinity; details: in vivo
[25] = Half life in Sprague-Dawley rat at 5 mg/kg, po via gavage administration measured after 24 hrs by LCMS analysis; assay type: ADME, organism-based; details: in vivo
[26] = MRTinfinity in Sprague-Dawley rat at 5 mg/kg, po via gavage administration measured after 24 hrs by LCMS analysis; assay type: ADME, organism-based; details: in vivo
[27] = AUC in Sprague-Dawley rat at 5 mg/kg, po via gavage administration measured after 24 hrs by LCMS analysis; assay type: ADME, organism-based; design: time < 24 hr, dose 5 mg/kg, route oral; details: in vivo
[28] = Acute toxicity in mouse assessed as mortality at 2 mg/kg, ig measured up to 14 days; assay type: organism-based; details: in vivo, po, 336 h
[29] = Intrinsic clearance in human liver microsomes assessed per mg protein at 1 uM measured up to 45 mins in presence of NADPH by LC/MS/MS analysis; assay type: ADME, Microsome; details: read-out: CLH
[30] = Acute toxicity in mouse assessed as change in kidney at 2 mg/kg, ig measured up to 14 days by H and E staining based assay; assay type: organism-based; details: in vivo, po, 336 h
[31] = Acute toxicity in mouse assessed as change in heart at 2 mg/kg, ig measured up to 14 days by H and E staining based assay; assay type: organism-based; details: in vivo, po, 336 h
[32] = tested on: Human immunodeficiency virus 1; test: Ratio of EC50 for test compound to EC50 for 4-[4-[[2-(4-cyanoanilino)pyrimidin-4-yl]amino]-3,5-dimethyl-phenyl]benzonitrile against HIV1 3B infected in human MT4 cells incubated for 5 days by MTT assay; assay type: functional

`Cl.N#Cc1ccc(Nc2nccc(Nc3c(F)cc(-c4ccc(C#N)cc4)cc3F)n2)cc1` showed a bioavailability [1] of 44%, an MRT inf [2] of 4.69 h and a Cmax [3] of 887 ng/mL. For the same compound, the Tmax [4] was 6.67 h, the bioavailability [5] was 33.6% and the Activity [6] was “Non-Toxic”. The Activity [7] was “Non-Toxic”, the Activity [8] was “Non-Toxic” and the MRT inf [9] was 8.27 h. The Activity [10] was “Non-Toxic”, the Activity [11] was “Non-Toxic” and the half-life at 1 µM [12] was 0.527 h. For the same compound, the k el at 0.75 h, 1 µM [12] was 0.000365 s⁻¹, the CLH [13] was 44.3 µL/min/mg and the Tmax [14] was 5.33 h. It also gave a solubility at 24 h [15] of 5.6 µg/mL, an AUC at 24 h [16] of 3560 ng·h/mL and an AUC at 24 h [17] of 12100 ng·h/mL. The AUC(0-inf) [18] was 12200 ng·h/mL, the k el at 0.75 h, 1 µM ([19]; liver microsomes) was 0.000262 s⁻¹ and the t1/2 ([19]; microsomes, 0.75 h, 1 µM) was 0.738 h. For the same compound, the AUC(0-inf) [20] was 8000 ng·h/mL, the half-life [21] was 4.18 h and the half-life [22] was 3.18 h. It also gave a Cmax [23] of 1230 ng/mL, an AUC(0-inf) [24] of 3640 ng·h/mL and a half-life [25] of 3.23 h. For the same compound, the MRT inf [26] was 8.37 h, the AUC at 24 h [27] was 7890 ng·h/mL and the Activity [28] was “Non-Toxic”. The microsomal CLint at 1 µM [29] was 21.9 µL/min/mg, the Activity [30] was “Non-Toxic” and the Activity [31] was “Non-Toxic”.
For `N#Cc1ccc(Nc2nc(Oc3ccc(-c4ccc(C#N)cc4)c(F)c3F)c3sccc3n2)cc1`, the “Ratio EC50” value [32] was 14.

From ChEMBL document CHEMBL4354822, “Ligand-Based Design of Nondimethylphenyl-Diarylpyrimidines with Improved Metabolic Stability, Safety, and Oral Pharmacokinetic Profiles” (J Med Chem, 2019)
